PubChem BioAssay (NCI)
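48-hour exposure; five concentrations; linearly interpolated endpoints. Definition used: TGI = concentration required for complete inhibition of growth.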

Key:
Experiment in all cases: inhibition of tumour cell growth, NCI panel, 48 h
MDA-N = tested on: MDA-N
SW-620 colon = tested on: SW-620 colon
HCT-15 colon = tested on: HCT-15 colon
SF-268 CNS = tested on: SF-268 CNS
CCRF-CEM leukemia = tested on: CCRF-CEM leukemia
NCI-H522 lung = tested on: NCI-H522 lung
NCI-H460 lung = tested on: NCI-H460 lung
M14 melanoma = tested on: M14 melanoma
ACHN renal = tested on: ACHN renal
T-47D breast = tested on: T-47D breast
A498 renal = tested on: A498 renal

SMILES | TGI (MDA-N) | TGI (SW-620 colon) | TGI (HCT-15 colon) | TGI (SF-268 CNS) | TGI (CCRF-CEM leukemia) | TGI (NCI-H522 lung) | TGI (NCI-H460 lung) | TGI (M14 melanoma) | TGI (ACHN renal) | TGI (T-47D breast) | TGI (A498 renal)
C=CCN(CC=C)Cn1c(=S)sc2ccccc21 | > 100 µM | > 100 µM | > 100 µM | > 100 µM | 47.5 µM | 37.7 µM | > 100 µM | > 100 µM | > 100 µM |  | 
O=c1c2ccccc2[nH]c(=S)n1-c1ccc(N=Nc2cccc3c(O)cccc23)cc1 | > 100 µM | > 100 µM | > 100 µM | > 100 µM | > 100 µM | > 100 µM | > 100 µM | > 100 µM | > 100 µM | > 100 µM | 
COC1(C)CC2N(C(=O)c3ccccc3)N=C(c3ccccc3)CC2(C)O1 (stereo not given) |  | > 100 µM | > 100 µM | > 100 µM | > 100 µM | > 100 µM | > 100 µM | > 100 µM | > 100 µM |  | > 100 µM
CC1(C)CC2(C)CC1CC2O (stereo not given) | > 100 µM | > 100 µM | > 100 µM | > 100 µM | > 100 µM |  |  | > 100 µM |  |  | 
COC(=O)C(C#N)=C1c2ccccc2Oc2ccccc21 |  | > 100 µM | > 100 µM | > 100 µM | > 100 µM | 77.3 µM | > 100 µM | > 100 µM | > 100 µM |  | > 100 µM
Cc1cc2c(c(C(=O)NCCC(=O)O)c1)Oc1c(cc(C)cc1C(=O)NCCC(=O)O)S2 | > 100 µM | > 100 µM | > 100 µM | > 100 µM | > 100 µM | > 100 µM |  | > 100 µM | > 100 µM | > 100 µM | 
CC1C(c2cc(C(C)(C)C)c(O)c(C(C)(C)C)c2)c2cc3c(cc2OC1N1CCOCC1)OCO3 (stereo not given) | > 100 µM | > 100 µM |  | 77.3 µM | > 100 µM | > 100 µM | 87 µM | 59.3 µM | 22.7 µM | > 100 µM | 
O=C1NC(c2ccc(O)cc2)C2CCC1C2 (stereo not given) |  | > 100 µM |  | > 100 µM | > 100 µM | > 100 µM | > 100 µM | > 100 µM | > 100 µM |  | > 100 µM
O=c1c2c3ccccc3[nH]c2c2cccc3c2n1CCC3 | > 100 µM | > 100 µM | > 100 µM | > 100 µM | > 100 µM |  | > 100 µM | > 100 µM | > 100 µM | > 100 µM | > 100 µM
Cc1ccccc1C(C#N)C(=O)C(=O)Nc1nc([N+](=O)[O-])cs1 (stereo not given) |  | > 100 µM | > 100 µM | > 100 µM |  | > 100 µM | > 100 µM | > 100 µM | > 100 µM |  | > 100 µM
CCOC(=O)c1c(NC(=O)c2ccccc2)sc2c1CCCC2 | > 100 µM | > 100 µM | > 100 µM | > 100 µM | > 100 µM |  |  | > 100 µM | > 100 µM | > 100 µM | > 100 µM
O=C1CCCN(c2ccccc2)N1 |  | > 100 µM | > 100 µM | > 100 µM |  | > 100 µM | > 100 µM | > 100 µM | > 100 µM |  | > 100 µM
N#Cc1c(N)[nH]c(=S)c(C#N)c1-c1cccc(Cl)c1 | 37.8 µM | > 100 µM | > 100 µM | 56.1 µM |  | 56.7 µM | > 100 µM | > 100 µM | > 100 µM |  | > 100 µM
O=C(/C(=C(/Br)I)c1ccccc1)c1ccccc1 | 81.9 µM |  | 79.3 µM | 48.5 µM | 30.4 µM |  | 37.2 µM | 31 µM | 71.2 µM | 59.8 µM | 28.7 µM
CC(C)(C)OC(=O)NCCCCC(NC(=O)OCc1ccccc1)C(N)=O (stereo not given) | > 100 µM | > 100 µM | > 100 µM | > 100 µM | > 100 µM | > 100 µM | > 100 µM | > 100 µM | > 100 µM | > 100 µM | 
Cc1c(S(=O)(=O)c2ccccc2)c(N)n(Cc2ccccc2)c1C | > 100 µM | > 100 µM | > 100 µM | > 100 µM | > 100 µM | > 100 µM | > 100 µM | > 100 µM | > 100 µM |  | > 100 µM
[N-]=[N+]=Nc1c(Cl)c(=O)n(-c2ccccc2)c2ccccc12 | 52.9 µM | 31 µM | 43.7 µM | 43.9 µM | 56.6 µM |  | > 100 µM | 36.3 µM | 49.2 µM | 28.9 µM | 
CC(C)(C)OC(=O)NC(C)(C)C(=O)NCCC(=O)O |  | > 100 µM | > 100 µM | > 100 µM | > 100 µM | > 100 µM | > 100 µM | > 100 µM | > 100 µM | > 100 µM | > 100 µM
COc1cc2c(cc1OCCCCCOc1cc3c(cc1OC)C(=O)N1CCC[C@H]1C(=O)N3)N=C[C@@H]1CCCN1C2=O |  |  | > 100 µM | 10.4 µM |  | 0.0419 µM |  | 0.521 µM | 4.05 µM | > 100 µM | 1.1 µM
Cc1ccccc1C1OC1C(=O)c1ccccc1N (stereo not given) | 36.3 µM | > 100 µM | > 100 µM | > 100 µM | > 100 µM |  | > 100 µM | > 100 µM | > 100 µM |  | > 100 µM
COC(=O)c1cc(CC(C)C)c2c(c1)[nH]c1ccccc12 |  | > 100 µM | > 100 µM | > 100 µM | > 100 µM | > 100 µM | > 100 µM | > 100 µM | > 100 µM |  | > 100 µM
O=C1CC(O)c2c1csc2Br (stereo not given) | 83.4 µM | 37.2 µM | 39 µM | 88.6 µM | 55.1 µM | 30.4 µM | > 100 µM | 35.5 µM | 45.4 µM | > 100 µM | 
O=c1[nH]cnc2c(C3OC(CO)C(O)C3O)c[nH]c12 (stereo not given) | > 100 µM | > 100 µM |  | > 100 µM | > 100 µM | > 100 µM | > 100 µM | > 100 µM | > 100 µM | > 100 µM | 
